From PubChem BioAssay AID256 (DTP/NCI, 2004)
Toxic doses and inconclusive results are not listed. How the source made its calls: active means survival T/C of 150% or more; inactive means T/C below 125% in these data.

Tested on: CD2F1 mice, L1210 leukemia ip, survival T/C
Assay: NCI In Vivo Anticancer Drug Screen. Data for tumor model L1210 Leukemia (intraperitoneal) in CD2F1 (CDF1) mice
Details: endpoint: mean survival time, higher = longer survival
How it was run: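 Vehicle-treated tumor-bearing mice served as controls (C) for compound-treated mice (T). Reported figure is T divided by C.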

[1] = dose: 75.0 mg/kg/injection, schedule: Q01DX001 (ip), vehicle: saline
[2] = dose: 150.0 mg/kg/injection, schedule: Q01DX001 (ip), vehicle: saline
[3] = dose: 100.0 mg/kg/injection, schedule: Q04DX003 (ip), vehicle: saline with Tween-80
[4] = dose: 200.0 mg/kg/injection, schedule: Q04DX003 (ip), vehicle: saline with Tween-80
[5] = dose: 400.0 mg/kg/injection, schedule: Q04DX003 (ip), vehicle: saline with Tween-80

Measured: T/C

CC(O)(P(=O)(O)O)P(=O)(O)O.[NH-]CC[NH-].[NH-]CC[NH-].[Pd+2].[Pd+2]
inactive: dose: 3.13 mg/kg/injection, schedule: Q04DX003 (ip), vehicle: water 106 % of control | dose: 6.25 mg/kg/injection, schedule: Q04DX003 (ip), vehicle: water 103 % of control | dose: 12.5 mg/kg/injection, schedule: Q04DX003 (ip), vehicle: water 87 % of control | dose: 25.0 mg/kg/injection, schedule: Q04DX003 (ip), vehicle: water 103 % of control | dose: 50.0 mg/kg/injection, schedule: Q04DX003 (ip), vehicle: water 93 % of control | dose: 100.0 mg/kg/injection, schedule: Q04DX003 (ip), vehicle: water 102 % of control

CCn1c(C)[n+](CC)c2ccc(C(F)(F)F)cc21
inactive: [1] 94 % of control | [2] 100 % of control

NS(=O)(=O)c1ccc(NC2OCC(O)C(O)C2O)cc1 (stereo not given)
inactive: dose: 100.0 mg/kg/injection, schedule: Q01DX009 (ip), vehicle: saline 103 % of control | [3] 93 % of control | dose: 200.0 mg/kg/injection, schedule: Q01DX009 (ip), vehicle: saline 104 % of control | [4] 98 % of control | dose: 400.0 mg/kg/injection, schedule: Q01DX009 (ip), vehicle: saline 103 % of control | [5] 101 % of control

Cc1c(N=O)c(-c2ccccc2)n(O)[n+]1[O-]
inactive: dose: 50.0 mg/kg/injection, schedule: Q01DX009 (ip), vehicle: Klucel (hydroxypropylcellulose) (HPC) 104 % of control | dose: 100.0 mg/kg/injection, schedule: Q01DX009 (ip), vehicle: Klucel (hydroxypropylcellulose) (HPC) 104 % of control | dose: 200.0 mg/kg/injection, schedule: Q01DX009 (ip), vehicle: Klucel (hydroxypropylcellulose) (HPC) 101 % of control

N#C/C(N)=C(\C#N)N=C1OCC(O)C(O)C1O (stereo not given)
inactive: dose: 12.5 mg/kg/injection, schedule: Q01DX005 (ip), vehicle: other 102 % of control | dose: 25.0 mg/kg/injection, schedule: Q01DX005 (ip), vehicle: other 101 % of control | dose: 50.0 mg/kg/injection, schedule: Q01DX005 (ip), vehicle: other 98 % of control | dose: 100.0 mg/kg/injection, schedule: Q01DX005 (ip), vehicle: other 106 % of control | dose: 200.0 mg/kg/injection, schedule: Q01DX005 (ip), vehicle: other 112 % of control

CC1(C)N=C(N)N=C(N)N1c1ccc(CNC(=O)Nc2cccc(S(=O)(=O)F)c2)cc1
inactive: dose: 6.25 mg/kg/injection, schedule: Q01DX009 (ip), vehicle: saline 115 % of control | dose: 75.0 mg/kg/injection, schedule: Q01DX001 (ip), vehicle: other 104 % of control | dose: 150.0 mg/kg/injection, schedule: Q01DX001 (ip), vehicle: other 107 % of control | dose: 300.0 mg/kg/injection, schedule: Q01DX001 (ip), vehicle: other 115 % of control

Cc1cccc(N/N=C2\CCSc3ccccc32)c1
inactive: dose: 100.0 mg/kg/injection, schedule: Q01DX001 (ip), vehicle: saline with Tween-80 100 % of control | dose: 200.0 mg/kg/injection, schedule: Q01DX001 (ip), vehicle: saline with Tween-80 100 % of control | dose: 400.0 mg/kg/injection, schedule: Q01DX001 (ip), vehicle: saline with Tween-80 103 % of control

CN(C)/N=N\c1c(C(N)=O)ncn1C1OC(CO)C(O)C1O (stereo not given)
inactive: dose: 100.0 mg/kg/injection, schedule: Q01DX005 (ip), vehicle: saline 104 % of control | dose: 200.0 mg/kg/injection, schedule: Q01DX005 (ip), vehicle: saline 95 % of control

CC12CS(=O)(=O)CC1O2 (stereo not given)
inactive: [3] 101 % of control | [4] 96 % of control | [5] 101 % of control

Nc1nc2c(c(=O)[nH]1)CN(c1ccc(Cl)cc1)C2
inactive: [1] 98 % of control | [2] 104 % of control | dose: 300.0 mg/kg/injection, schedule: Q01DX001 (ip), vehicle: saline 93 % of control

CCCc1nc(N)[nH]c(=O)c1CCCCc1ccccc1
inactive: [3] 88 % of control | [4] 94 % of control | [5] 93 % of control

O=S1(=O)CCC2CCCCC2C1 (stereo not given)
inactive: dose: 12.5 mg/kg/injection, schedule: Q04DX003 (ip), vehicle: saline with Tween-80 103 % of control | dose: 25.0 mg/kg/injection, schedule: Q04DX003 (ip), vehicle: saline with Tween-80 100 % of control

Cc1c2cnccc2c(C)c2c1c1ccccc1n2CCNCCO
inactive: dose: 50.0 mg/kg/injection, schedule: Q01DX009 (ip), vehicle: saline sonified 113 % of control | dose: 100.0 mg/kg/injection, schedule: Q01DX009 (ip), vehicle: saline sonified 87 % of control

COc1cccc2c1C(=O)c1c(O)c3c(c(O)c1C2=O)C[C@@](O)(/C(C)=N/NC(=O)c1ccc(Cl)cc1)C[C@@H]3OC1CC(N)C(O)C(C)O1 (stereo not given in full)
inactive: dose: 0.5 mg/kg/injection, schedule: Q01DX009 (ip), vehicle: saline 96 % of control | dose: 0.5 mg/kg/injection, schedule: Q01DX009 (ip), vehicle: suspension in saline 110 % of control | dose: 1.0 mg/kg/injection, schedule: Q01DX009 (ip), vehicle: suspension in saline 115 % of control | dose: 2.0 mg/kg/injection, schedule: Q01DX009 (ip), vehicle: saline 122 % of control | dose: 2.0 mg/kg/injection, schedule: Q01DX009 (ip), vehicle: suspension in saline 118 % of control | dose: 16.0 mg/kg/injection, schedule: Q01DX009 (ip), vehicle: saline 108 % of control
